Assay results reported in ChEMBL document CHEMBL1201862, “PubChem BioAssay data set” (2004).
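Exposure lasted 48 hours, with cells grown in 96-well plates and compounds tested at five concentrations. GI50 is the concentration that inhibits growth by half.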 Active and inactive are the calls of the source. Rule as the data show it: active = GI50 up to about 1.1 µM and inactive = higher.

How the values were obtained:
Assay in all cases: inhibition of tumour cell growth, NCI panel, 48 h
[1] = tested on: ACHN
[2] = tested on: DU-145
[3] = tested on: HCT-116
[4] = tested on: HCT-15
[5] = tested on: HOP-92
[6] = tested on: IGROV-1
[7] = tested on: K562
[8] = tested on: MDA-MB-435
[9] = tested on: MDA-N
[10] = tested on: Malme-3M
[11] = tested on: OVCAR-3
[12] = tested on: OVCAR-5
[13] = tested on: OVCAR-8
[14] = tested on: PC-3
[15] = tested on: RPMI-8226
[16] = tested on: RXF 393
[17] = tested on: SF-539
[18] = tested on: SK-MEL-2
[19] = tested on: SNB-19
[20] = tested on: TK-10

Compound	GI50 [1]	GI50 [2]	GI50 [3]	GI50 [4] [µM]	GI50 [5]	GI50 [6]	GI50 [7]	GI50 [8]	GI50 [9]	GI50 [10]	GI50 [11]	GI50 [12]	GI50 [13]	GI50 [14]	GI50 [15]	GI50 [16]	GI50 [17]	GI50 [18]	GI50 [19]	GI50 [20]
O=C(Nc1nnc(-c2ccc(Cl)cc2)o1)C(SC(=S)N1CCCCC1)c1ccccc1 (stereo not given)	15.7 µM (inactive)	25.7 µM (inactive)	12.7 µM (inactive)	7.16	22.7 µM (inactive)	9.38 µM (inactive)	11.6 µM (inactive)	21.2 µM (inactive)	15.5 µM (inactive)	3.11 µM (inactive)	19.3 µM (inactive)	21.5 µM (inactive)	22.1 µM (inactive)	22.4 µM (inactive)	11.2 µM (inactive)	24.8 µM (inactive)	30 µM (inactive)	15.7 µM (inactive)	20.5 µM (inactive)	34 µM (inactive)
CNC1C(=O)C(C)C(O)(C(CC(C)C(O)/C=C/C=C/CNC(=O)C(C)(C)C(O)\C(C)=C/C=C\C=C\Cc2cnc(C)o2)OC)C12C(=O)OC2C.CNC1C(=O)C(C)C(O)(C(CC(C)C(O)/C=C/C=C/CNC(=O)C(C)(C)C(O)\C(C)=C/C=C\C=C\Cc2cnc(C)o2)OC)C12C(=O)OC2COC (stereo not given)	3.3 µM (inactive)	31.5 µM (inactive)	15.1 µM (inactive)	21	2.72 µM (inactive)	0.931 µM (active)	0.181 µM (active)	16 µM (inactive)	15 µM (inactive)	9.04 µM (inactive)	1.56 µM (inactive)	20.6 µM (inactive)	0.459 µM (active)	0.237 µM (active)	0.711 µM (active)	17.3 µM (inactive)	23.2 µM (inactive)	5.94 µM (inactive)	19.9 µM (inactive)	11.9 µM (inactive)
CCOC(=O)C(O)Cc1cnc2ccccc2n1 (stereo not given)	> 100 µM (inactive)	> 100 µM (inactive)	> 100 µM (inactive)	> 100	> 100 µM (inactive)	94.2 µM (inactive)	> 100 µM (inactive)	> 100 µM (inactive)	> 100 µM (inactive)	> 100 µM (inactive)	> 100 µM (inactive)	> 100 µM (inactive)	> 100 µM (inactive)	> 100 µM (inactive)	> 100 µM (inactive)	> 100 µM (inactive)	> 100 µM (inactive)	> 100 µM (inactive)	> 100 µM (inactive)	> 100 µM (inactive)
ON[C@@H]1C=C[C@H](n2cnc3c(NC4CC4)ncnc32)C1	> 100 µM (inactive)	> 100 µM (inactive)	86.5 µM (inactive)	> 100	> 100 µM (inactive)	94.4 µM (inactive)	> 100 µM (inactive)	> 100 µM (inactive)	> 100 µM (inactive)	> 100 µM (inactive)	> 100 µM (inactive)	> 100 µM (inactive)	> 100 µM (inactive)	> 100 µM (inactive)	> 100 µM (inactive)	> 100 µM (inactive)	> 100 µM (inactive)	> 100 µM (inactive)	> 100 µM (inactive)	> 100 µM (inactive)
CN(C)[C@H]1CC[C@H]2[C@@H]3CCC4C[C@@H](NC(=O)NC(Cc5ccccc5)c5nccs5)CC[C@]4(C)[C@H]3CC[C@]12C (stereo not given in full)	1.76 µM (inactive)	2.28 µM (inactive)	0.955 µM (active)	0.687	1.53 µM (inactive)	1.87 µM (inactive)	0.128 µM (active)	0.51 µM (active)	0.35 µM (active)	1.85 µM (inactive)	0.853 µM (active)	1.76 µM (inactive)	0.667 µM (active)	0.509 µM (active)	0.792 µM (active)	1.54 µM (inactive)	1.75 µM (inactive)	1.1 µM (active)	1.79 µM (inactive)	2.04 µM (inactive)
C=C1CCC(CC[C@@H]2CC[C@]3(OC2)O[C@@]2(O)CC[C@]3(C)OC2(C)C)C(C)(C)[C@H]1C/C=C1/C(=O)OC[C@@H]1O (stereo not given in full)	2.65 µM (inactive)	4.83 µM (inactive)	0.71 µM (active)	1.22	2.02 µM (inactive)	2.91 µM (inactive)	0.141 µM (active)	1.86 µM (inactive)	1.49 µM (inactive)	2.39 µM (inactive)	2.57 µM (inactive)	2.5 µM (inactive)	1.22 µM (inactive)	2.17 µM (inactive)	1.62 µM (inactive)	2.19 µM (inactive)	3.17 µM (inactive)	0.524 µM (active)	2.89 µM (inactive)	6.12 µM (inactive)
O=C(c1ccc(Cl)cc1)c1cnc(Nc2ccccc2Cl)s1	18.9 µM (inactive)	20.3 µM (inactive)	21 µM (inactive)	22.8	27.2 µM (inactive)	23.2 µM (inactive)	> 100 µM (inactive)	32.6 µM (inactive)	21.8 µM (inactive)	19 µM (inactive)	18.3 µM (inactive)	29.8 µM (inactive)	29.2 µM (inactive)	24.4 µM (inactive)	> 100 µM (inactive)	20.7 µM (inactive)	27.5 µM (inactive)	15.6 µM (inactive)	20.2 µM (inactive)	18.5 µM (inactive)
CC(=O)c1cccc2c1CC1(C2)Cc2ccc3c(c2C1=O)CCC3 (stereo not given)	47.9 µM (inactive)	79.1 µM (inactive)	27.7 µM (inactive)	33.6	12.6 µM (inactive)	74 µM (inactive)	21.6 µM (inactive)	32.1 µM (inactive)	49.1 µM (inactive)	14.3 µM (inactive)	23.5 µM (inactive)	53.6 µM (inactive)	57.1 µM (inactive)	32.5 µM (inactive)	17.3 µM (inactive)	33 µM (inactive)	82.2 µM (inactive)	26.2 µM (inactive)	> 100 µM (inactive)	24.2 µM (inactive)
O=c1/c(=C/c2ccc([N+](=O)[O-])o2)sc2n1[C@@H](c1ccc3c(c1)OCO3)C=C(c1cc(F)c(Cl)cc1Cl)N=2	16.1 µM (inactive)	21.6 µM (inactive)	5.11 µM (inactive)	9.59	12.6 µM (inactive)	16.3 µM (inactive)	5.09 µM (inactive)	13.4 µM (inactive)	5.5 µM (inactive)	19.7 µM (inactive)	16.8 µM (inactive)	21.7 µM (inactive)	11.9 µM (inactive)	22 µM (inactive)	9.31 µM (inactive)	16.1 µM (inactive)	23.8 µM (inactive)	25.1 µM (inactive)	20.8 µM (inactive)	23.3 µM (inactive)
CCCCCC(/C=C/C1CCC(=O)C1)OCOCCOC (stereo not given)	22.3 µM (inactive)	> 100 µM (inactive)	27 µM (inactive)	31.1	24.2 µM (inactive)	42.2 µM (inactive)	25.8 µM (inactive)	33.2 µM (inactive)	40.2 µM (inactive)	> 78.9 µM (inactive)	41.4 µM (inactive)	> 100 µM (inactive)	33.9 µM (inactive)	42.1 µM (inactive)	21.6 µM (inactive)	34 µM (inactive)	19.8 µM (inactive)	64.6 µM (inactive)	> 53.3 µM (inactive)	37.2 µM (inactive)
